From US10766940B2, “Brain penetrant amylin receptor based peptides for Alzheimer's disease” (The Governors of the University of Alberta, priority 2016, dated 2020)
Residues, ends and D or L forms follow the SMILES beside them.

Tests used:
[1] = Ex vivo brain imaging of peptide fragments after ip injection, wild-type mice; type: in vivo, mouse
Method: For ex vivo imaging experiments and peptide brain uptake, age matched 6-month-old wild-type littermate (C57BL/6 background) mice were used. […] After 2 hours the mice were then sacrificed to collect their brains, and imaged using the Kodak imager as described above, but with an exposure time of 3 min per image for NIRF image.
For ex vivo histological studies, brains were excised, embedded in OCT, then sliced into 20-μm slices, co-stained with DAPI in mounting medium.
Mice were injected with a single dose and then sacrificed, and the brains were extracted after 2 hours from injection. Fluorescence in brains was quantified as previously described.

TgCRND8 AD mouse model = assay: T-maze alternation, chronic icv infusion of AC253; type: in vivo; conditions: TgCRND8 mice receiving icv AC253 vs other groups
Method: Age-matched, wild-type littermate (C57BL/6 background) male or female mice were used. […] Heterozygous CTR (het CTR) mice (C57BL/6J background) with a 50% deletion of CTR were obtained from Drs. R. A. Davey and J. D. Zajac (Department of Medicine, Austin Health, University of Melbourne, Heidelberg, Victoria, Australia). Mice were housed individually under standard laboratory conditions (12/12-h light/dark cycle, lights on at 0600 h) with a room temperature of 21° C. Water and food were available ad libitum unless otherwise indicated. All tests were performed during the light phase between 0900 and 1600 h in accordance with institutional guidelines. The mice were 3 months old at the onset of testing.
A microcannula was stereotaxically inserted into the right cerebral ventricle (0.12 right lateral and 0.06 posterior to bregma, 3 mm deep) of isofluorane-anesthetized mice, and connected to an osmotic pump (Alzet; model 2004) implanted subcutaneously on the back of the mouse. The pump infused a solution of either aCSF or AC253 in aCSF into the ventricle at a rate of […] to yield an estimated concentration of 1 μM AC253 in the mouse CSF at equilibrium based upon the known CSF dynamics in the mouse brain (Di Pardo et al., 2012). […] Animals were monitored on a daily basis for signs of treatment-related toxicity, such as poor grooming, lethargy, loss of bodyweight, and abnormal behavior. […]

[2] = system: TgCRND8 and wild-type mice; assay: Daily monitoring for treatment-related toxicity during chronic icv infusion; type: in vivo, mouse; conditions: chronic icv infusion 5-6 months
Method: (§1) A microcannula was stereotaxically inserted into the right cerebral ventricle (0.12 right lateral and 0.06 posterior to bregma, 3 mm deep) of isofluorane-anesthetized mice, and connected to an osmotic pump (Alzet; model 2004) implanted subcutaneously on the back of the mouse. The pump infused a solution of either aCSF or AC253 in aCSF into the ventricle at a rate of […] to yield an estimated concentration of 1 μM AC253 in the mouse CSF at equilibrium based upon the known CSF dynamics in the mouse brain (Di Pardo et al., 2012). The pump reservoir was replaced every 28 days for a total of 5-6 months. Animals were monitored on a daily basis for signs of treatment-related toxicity, such as poor grooming, lethargy, loss of bodyweight, and abnormal behavior. After completion of medication and behavioral tests, all mice were killed with an overdose of isoflourane anesthetic, perfused transcardially with saline, and the brains were harvested. The left hemisphere per animal was frozen for biochemical analysis (Western blot, ELISA), and the right hemisphere retained for histological analysis.

[3] = system: APP, CTR, RAMP3, synapsin 1, synaptophysin, Iba1 in TgCRND8 mice brains; assay: Western blot of brain homogenates after 5 months icv AC253; type: in vivo, mouse
Method: as §1
Frozen brain tissues were homogenized in cold RIPA buffer with protease inhibitors and proteins were isolated and measured using BCA assay (BioRad, Mississauga, ON, Canada). Proteins were loaded at 50 μg per lane on a 12% polyacrylamide gel for CTR, RAMP3, NeuN, synapsin1, phospho-synapsin, and Iba1, or 4-20% polyacrylamide gradient gel (BioRad) for APP. Proteins were transferred to nitrocellulose membrane, and blocked with LiCOR blocking buffer. Blots were incubated with primary antibodies overnight at 4° C. on a shaker. Primary antibody used for CTR (1:1000 rabbit; Thermo Scientific), RAMP3 (1:1000 rabbit; Santa Cruz Biotechnology), 6E10 for APP (1:5000 mouse; 6E10; Covance), NeuN (1:1000, rabbit, Abcam), synapsin-1 (1:1000 rabbit, Abcam), synaptophysin (1:1000, rabbit, Abcam), phosphosynapsin (1:1000, rabbit, Abcam), Iba1 (1:1000, rabbit, Wako), β-tubulin (1:1000, rabbit, Cell Signaling Technology, Inc.) and β-actin (1:10000 mouse, Sigma-Aldrich). IRDye 800CW goat anti-rabbit and IRDye 680CW goat anti-mouse were used as secondary antibodies. Blots were imaged using LiCor Odyssey image system.

[4] = system: Aβ plaques in TgCRND8 mice brains; assay: Immunofluorescent-histological staining of Aβ plaques (6E10); type: in vivo, mouse; conditions: Tg AC253 vs Tg CSF
Method: A microcannula was stereotaxically inserted into the right cerebral ventricle (0.12 right lateral and 0.06 posterior to bregma, 3 mm deep) of isofluorane-anesthetized mice, and connected to an osmotic pump (Alzet; model 2004) implanted subcutaneously on the back of the mouse. The pump infused a solution of either aCSF or AC253 in aCSF into the ventricle at a rate of […] to yield an estimated concentration of 1 μM AC253 in the mouse CSF at equilibrium based upon the known CSF dynamics in the mouse brain (Di Pardo et al., 2012). The pump reservoir was replaced every 28 days for a total of 5-6 months. Animals were monitored on a daily basis for signs of treatment-related toxicity, such as poor grooming, lethargy, loss of bodyweight, and abnormal behavior. […]
For immunostaining, […] thick brain sections were cut using a Cryostat (Leica CM1850), fixed with 4% paraformaldehyde in PBS, permeabilized using 0.3% Triton X-100 and stained with Aβ (6E10), Iba1, and CTR antibody, followed by fluorescent secondary antibody (goat anti mouse Alexa Fluor-546 and donkey anti rabbit Alexa Fluor-488) and mounted in DAPI mounting media. Fluorescent microscopy images were acquired with an Axioplan-2 fluorescence microscope with AxioVision software (Carl Zeiss Ltd., Toronto, ON, Canada). Amyloid plaque size and area were analyzed with Image J.

[5] = Lipophilicity, shake flask 1-octanol/water partition; type: physicochemical
Method: Peptides hydrophobicity was determined using the shake flask method and 1-octanol/water partition coefficient (log Po/w) was determined. […] Peptide concentration (area) in both phases (1-octanol and water) were analyzed by RP-HPLC. The final log Po/w value was calculated by dividing the concentration (C) of the peptide in the two phases as presented by the area under the peak (partition coefficients=C1-octanol/Cwater).

Structure (SMILES)	brain permeability, imaging of the intact brain ([1]; 0.1 mmol ip, 2 hr post-injection, tested alongside Davlintide)	brain permeability compared to AC253 ([1]; 2 hr post-ip injection, wild-type mice)	T-maze, identification of the food arm (TgCRND8 AD mouse model)	signs of off-target effects or changes in body weight [2]	amylin receptor (CTR, RAMP3 proteins) expression levels in the brain ([3]; Tg AC253 vs Tg CSF)	increase in expression level of synapsin 1 ([3]; Tg AC253 vs Tg CSF controls) [%]	increase in expression level of synaptophysin ([3]; Tg AC253 vs Tg CSF controls) [%]	APP expression (Western blot) ([3]; Tg AC253 vs Tg CSF, 5 months icv)	reduction of expression levels of Iba-1 (microglial marker) ([3]; Tg-AC253 vs Tg-CSF) [%]	number of Aβ plaques, total area of Aβ-positive profiles [4]	Partition coefficient [5]	logP [5]
CC(C)C[C@H](NC(=O)[C@H](CCC(=O)O)NC(=O)[C@H](CCC(N)=O)NC(=O)[C@@H](N)CO)C(=O)N[C@@H](Cc1c[nH]cn1)C(=O)N[C@@H](CCCNC(=N)N)C(=O)N[C@@H](CC(C)C)C(=O)N[C@@H](CCC(N)=O)C(=O)N[C@H](C(=O)N[C@@H](Cc1ccc(O)cc1)C(=O)N1CCC[C@H]1C(=O)N[C@@H](CCCNC(=N)N)C(N)=O)[C@@H](C)O [R5] (H-SQELHRLQTYPR-NH2; N-terminus assumed)	marked brain permeability	marked increase in brain permeability	–	–	–	–	–	–	–	–	–	–
CC(C)C[C@H](NC(=O)[C@H](CCCNC(=N)N)NC(=O)CNC(=O)[C@@H](N)CC(C)C)C(=O)N[C@@H](CO)C(=O)N[C@@H](CCC(N)=O)C(=O)N[C@@H](CCC(=O)O)C(=O)N[C@@H](CC(C)C)C(=O)N[C@@H](Cc1c[nH]cn1)C(=O)N[C@@H](CCCNC(=N)N)C(=O)N[C@@H](CC(C)C)C(=O)N[C@@H](CCC(N)=O)C(=O)N[C@H](C(=O)N[C@@H](Cc1ccc(O)cc1)C(=O)N1CCC[C@H]1C(=O)N[C@@H](CCCNC(=N)N)C(=O)N[C@H](C(=O)N[C@@H](CC(N)=O)C(=O)N[C@H](C(=O)NCC(=O)N[C@@H](CO)C(=O)N[C@@H](CC(N)=O)C(=O)N[C@H](C(=O)N[C@@H](Cc1ccc(O)cc1)C(N)=O)[C@@H](C)O)[C@@H](C)O)[C@@H](C)O)[C@@H](C)O [AC253]	–	–	correctly identified the food arm of the maze	none of the mice receiving AC253 showed any signs of off-target effects	no noticeable difference	40	30	no significant difference	50	did not reveal significant difference	1.05	-1.2
